SMILES strings stand for the structures.

In the first assay the test system is NO production in BV-2 cells [NO 생성; BV-2 세포]. As to the kind of experiment: Nitric oxide (NO) quantification (nitrite, Griess reaction) in LPS-activated BV-2 cells. As to conditions: 20 μM, LPS 0.2 ㎍/mL, 24 h co-treatment, nitrite by Griess at 540 nm, 1440 min. The class given is cell-based. (Griess reagent forms a coloured azo dye with nitrite.)
As for `CC(Nc1nc(S(C)(=O)=O)nc2c1cnn2Cc1ccccc1)c1ccccc1` (single isomer, unassigned) [화합물 23r, 1-벤질-6-(메틸설포닐)-N-(1-페닐에틸)-1H-피라졸로[3,4-d]피리미딘-4-아민], the “NO (% of LPS)” value is reported as 87±7.1 % of LPS.

For `CCCCNc1nc(NC(C)c2ccccc2)c2cnn(Cc3ccccc3)c2n1` (stereo not drawn) [화합물 24f, 1-벤질-N6-뷰틸-N4-(1-페닐에틸)-1H-피라졸로[3,4-d]피리미딘-4,6-디아민], the “NO (% of LPS)” value is recorded as 9±1 % of LPS.

Still in this assay, the particulars now being: Mus musculus, 20 μM, LPS 0.2 ㎍/mL, 24 h co-treatment, nitrite by Griess at 540 nm.
As to `CSc1nc(N2CCN(C)CC2)c2cn[nH]c2n1` [6n, 4-(4-메틸피페라지노)-6-(메틸티오)피라졸로[3,4-d]피리미딘], the activity at 20 µM was 114 ± 9%.

Still in this assay, the particulars now being: Mus musculus, BV-2, 24 h, 20 μM, LPS 0.2 ㎍/mL, 24 h co-treatment, nitrite by Griess at 540 nm.
As to `CC(Nc1nc(S(C)(=O)=O)nc2c1cnn2Cc1ccccc1)c1ccccc1` (stereo not drawn) [화합물 23p, 1-벤질-6-(메틸설포닐)-N-(1-페닐에틸)-1H-피라졸로[3,4-d]피리미딘-4-아민], the activity at 20 µM worked out at 40 ± 4.9%.

With `COc1ccc(CNc2nc(SC)nc3c2cnn3CCc2cccc(OC)c2)cc1` [화합물 18e, 1-(3-메톡시펜에틸)-N-(4-메톡시벤질)-6-(메틸티오)-1H-피라졸로[3,4-d]피리미딘-4-아민], the activity at 20 µM was 44 ± 1.3%.

With `CSc1nc(NCc2ccc(F)cc2)c2c(-c3ccccc3)nn(Cc3ccccc3)c2n1` [32c, 1-벤질-3-페닐-4-(4-플루오로벤질)아미노-6-(메틸티오)피라졸로[3,4-d]피리미딘], the activity at 20 µM amounted to 69 ± 8%.

Consider `COc1cccc(CCn2ncc3c(NCc4ccccc4Cl)nc(SC)nc32)c1` [화합물 18a, N-(2-클로로벤질)-1-(3-메톡시펜에틸)-6-(메틸티오)-1H-피라졸로[3,4-d]피리미딘-4-아민], for which the activity at 20 µM came out at 43 ± 18.1%.

For `CSc1nc(SCc2ccccc2Cl)c2cnn(Cc3ccccc3)c2n1` [화합물 16s, 4-(2-클로로벤질티오)-1-벤질-6-(메틸티오)-1H-피라졸로[3,4-d]피리미딘], the activity at 20 µM stood at 66 ± 2.6%.

Consider `CSc1nc(NCc2ccccc2Cl)c2cnn(CCNC(=O)OC(C)(C)C)c2n1` [화합물 14l, 2-(4-(2-클로로벤질아미노)-6-(메틸티오)-1H-피라졸로[3,4-d]피리미딘-1-일)에틸카바메이트], for which the activity at 20 µM was 24.2 ± 1.7%.

Turning to `C=CCNc1nc(SC)nc2c1cnn2CCc1ccccc1OC` [화합물 19f, 1-(2-메톡시펜에틸)-N-알릴-6-(메틸티오)-1H-피라졸로[3,4-d]피리미딘-4-아민], the activity at 20 µM is 75 ± 8.7%.

As to `CSc1nc(SCC(C)C)c2cnn(Cc3ccccc3)c2n1` [화합물 16n, 1-벤질-4-(이소부틸티오)-6-(메틸티오)-1H-피라졸로[3,4-d]피리미딘], the activity at 20 µM is 56 ± 4.5%.

For `COc1ccccc1CNc1nc(SC)nc2c1cnn2C` [화합물 12j, 1-메틸-4-(2-메톡시벤질)아미노-6-(메틸티오)피라졸로[3,4-d]피리미딘], the activity at 20 µM was 40 ± 5%.

As for `COc1ccc(CNc2nc(SC)nc3c2cnn3CCc2ccccc2OC)cc1` [화합물 19b, 1-(2-메톡시펜에틸)-N-(4-메톡시벤질)-6-(메틸티오)-1H-피라졸로[3,4-d]피리미딘-4-아민], the activity at 20 µM was 27 ± 6.8%.

`COc1ccc(CNc2nc(S(C)(=O)=O)nc3c2cnn3CCc2ccccc2OC)cc1` [화합물 23za, 1-(2-메톡시펜에틸)-N-(4-메톡시벤질)-6-(메틸설포닐)-1H-피라졸로[3,4-d]피리미딘-4-아민]: the activity at 20 µM is 56 ± 3.6%.

As to `C=CCn1ncc2c(NCc3cccc(OC)c3)nc(SC)nc21` [화합물 13j, N-(3-메톡시벤질)-1-알릴-6-(메틸티오)-1H-피라졸로[3,4-d]피리미딘-4-아민], the activity at 20 µM came out at 87 ± 0.2%.

As to `CC(Nc1nc(NCc2ccccc2)nc2c1cnn2Cc1ccccc1)c1ccccc1` (stereo not drawn) [화합물 24e, N6,1-디벤질-N4-(1-페닐에틸)-1-벤질-1H-피라졸로[3,4-d]피리미딘-4,6-디아민], the activity at 20 µM worked out at 41 ± 16.3%.

Regarding `CSc1nc(NC(C)(C)CO)c2cnn(Cc3ccccc3)c2n1` [화합물 16j, 1-벤질-4-[(1-하이드록시-2,2-다이메틸)에틸]아미노-6-(메틸티오)피라졸로[3,4-d]피리미딘], the activity at 20 µM came to 48 ± 8%.

As for `CSc1nc(NCCCn2ccnc2)c2cnn(C)c2n1` [12d, 1-메틸-4-[3-(이미다졸-1-일)]프로필아미노-6-(메틸티오)피라졸로[3,4-d]피리미딘], the activity at 20 µM was determined as 75 ± 1%.

As for `COc1ccc(CNc2nc(SC)nc3[nH]ncc23)cc1` [6x, N-(4-메톡시벤질)-6-(메틸티오)-1H-피라졸로[3,4-d]피리미딘-4-아민], the activity at 20 µM is 115 ± 3.2%.

`CSc1nc(Cl)c2cnn(-c3ccccc3)c2n1` [5e, 1-페닐-4-클로로-6-(메틸티오)피라졸로[3,4-d]피리미딘]: the activity at 20 µM worked out at 50 ± 7%.

As to `CSc1nc(Cl)c2cnn(Cc3ccccc3)c2n1` [5f, 1-벤질-4-클로로-6-(메틸티오)피라졸로[3,4-d]피리미딘], the activity at 20 µM was 69 ± 3%.

On to `CSc1nc(NC(C)c2ccccc2)c2cnn(C)c2n1` (stereo not drawn) [화합물 12o, 1-메틸-6-(메틸티오)-N-(1-페닐에틸)-1H-피라졸로[3,4-d]피리미딘-4-아민], for which the activity at 20 µM was determined as 70 ± 5%.

On to `CSc1nc(NCc2ccccc2Cl)c2cnn(CCO)c2n1` [화합물 27h, 2-(4-(2-클로로벤질아미노)-6-(메틸티오)-1H-피라졸로[3,4-d]피리미딘-1-일)에탄올], for which the activity at 20 µM was determined as 87.4 ± 1.2%.

As for `COc1cccc(CCn2ncc3c(NCc4ccccc4Cl)nc([S+](C)[O-])nc32)c1` (stereo not drawn) [화합물 22k, N-(2-클로로벤질)-1-(3-메톡시펜에틸)-6-(메틸설파이닐)-1H-피라졸로[3,4-d]피리미딘-4-아민], the activity at 20 µM turned out to be 58 ± 2%.

Turning to `C=CCn1ncc2c(NC(C)(C)CO)nc(SC)nc21` [화합물 13k, 2-(1-알릴-6-(메틸티오)-1H-피라졸로[3,4-d]피리미딘-4-일아미노)-2-메틸프로판-1-올], the activity at 20 µM is 15.9 ± 0.6%.

With `CS(=O)(=O)c1nc(NC(c2ccccc2)c2ccc(Cl)cc2)c2cnn(Cc3ccccc3)c2n1` (stereo not drawn) [화합물 23s, 1-벤질-N-((4-클로로페닐)(페닐)메틸)-6-(메틸설포닐)-N-(1-페닐에틸)-1H-피라졸로[3,4-d]피리미딘-4-아민], the activity at 20 µM was found to be 54 ± 2.3%.

With `COc1ccc(CNc2nc(SC)nc3c2cnn3C(C)(C)C)cc1` [화합물 17e, 1-t-뷰틸-4-(4-메톡시벤질)아미노-6-(메틸티오)피라졸로[3,4-d]피리미딘], the activity at 20 µM was determined as 21 ± 27%.

For the compound `CSc1nc(NCCc2ccccc2)c2cnn(C(C)(C)C)c2n1` [화합물 17h, 1-t-뷰틸-4-(2-페닐에틸)아미노-6-(메틸티오)피라졸로[3,4-d]피리미딘], the activity at 20 µM came out at 61 ± 1%.

As for `CSc1nc(NCc2ccc(Cl)cc2)c2cnn(C)c2n1` [화합물 12m, 1-메틸-4-(4-클로로벤질)아미노-6-(메틸티오)피라졸로[3,4-d]피리미딘], the activity at 20 µM came out at 53 ± 6%.

Consider `COc1cccc(CCn2ncc3c(NCc4ccccc4C)nc(S(C)(=O)=O)nc32)c1` [화합물 22m, N-(2-메틸벤질)-1-(3-메톡시펜에틸)-6-(메틸설포닐)-1H-피라졸로[3,4-d]피리미딘-4-아민], for which the activity at 20 µM was 62 ± 2.8%.

In the case of `CSc1nc(NCc2ccc(F)cc2)c2cnn(-c3ccccc3)c2n1` [화합물 15e, 1-페닐-4-(4-플루오로벤질)아미노-6-(메틸티오)피라졸로[3,4-d]피리미딘], the activity at 20 µM was determined as 46 ± 10%.

Consider `CSc1nc(NCc2ccc(F)cc2)c2cnn(CCO)c2n1` [화합물 27b, 1-(1-하이드록시에틸)-4-(4-플루오로벤질)벤질아미노-6-(메틸티오)피라졸로[3,4-d]피리미딘], for which the activity at 20 µM was 73 ± 10%.

Regarding `CCCCSc1nc(SC)nc2c1cnn2Cc1ccccc1` [화합물 16m, 1-벤질-4-(뷰틸티오)-6-(메틸티오)-1H-피라졸로[3,4-d]피리미딘], the activity at 20 µM came to 58 ± 1.9%.

On to `COc1ccccc1CNc1nc(S(C)(=O)=O)nc2c1cnn2-c1ccc(C)cc1` [화합물 23m, N-(2-메톡시벤질)-6-(메틸설포닐)-1-p-톨릴-1H-피라졸로[3,4-d]피리미딘-4-아민], for which the activity at 20 µM came out at 35 ± 3.3%.

For the compound `COc1ccc(CNc2nc(SC)nc3c2cnn3-c2ccc(F)cc2)cc1` [화합물 20e, N-(4-메톡시벤질)-1-(4-플루오로페닐)-6-(메틸티오)-1H-피라졸로[3,4-d]피리미딘-4-아민], the activity at 20 µM was found to be 235%.

Take `CSc1nc(NCCCn2ccnc2)c2cn[nH]c2n1` [6m, 4-(3-이미다졸-1-일)프로판아미노-6-(메틸티오)피라졸로[3,4-d]피리미딘]: the activity at 20 µM was 97 ± 6%.

Consider `CSc1nc(NC(C)c2ccc(C)cc2)c2cnn(-c3ccccc3)c2n1` (stereo not drawn) [화합물 15zb, 6-(메틸티오)-1-페닐-N-(1-p-톨릴에틸)-1H-피라졸로[3,4-d]피리미딘-4-아민], for which the activity at 20 µM came to 51 ± 0.1%.

On to `CSc1nc(Cl)c2cnn(-c3ccc(C)cc3)c2n1` [5i, 1-(4-메틸페닐)-4-클로로-6-(메틸티오)피라졸로[3,4-d]피리미딘], for which the activity at 20 µM is 54 ± 2.7%.

With `CSc1nc(NC(C)C2CCCCC2)c2cnn(Cc3ccccc3)c2n1` (stereo not drawn) [화합물 16z, 1-벤질-N-(1-사이클로헥실에틸)-6-(메틸티오)-1H-피라졸로[3,4-d]피리미딘-4-아민], the activity at 20 µM was found to be 26 ± 2.4%.

Regarding `Cc1ccccc1CNc1nc(S(C)(=O)=O)nc2c1cnn2-c1ccc(F)cc1` [화합물 23k, N-(2-메틸벤질)-1-(4-플루오로페닐)-6-(메틸설포닐)-1H-피라졸로[3,4-d]피리미딘-4-아민], the activity at 20 µM amounted to 35 ± 4.6%.

Turning to `CSc1nc(NC(c2ccccc2)c2ccc(Cl)cc2)c2cnn(Cc3ccccc3)c2n1` (stereo not drawn) [화합물 16y, 1-벤질-N-((4-클로로페닐)(페닐)메틸)-6-(메틸티오)-1H-피라졸로[3,4-d]피리미딘-4-아민], the activity at 20 µM was determined as 41 ± 0.9%.

Take `CSc1nc(N(CCO)CCO)c2cn[nH]c2n1` [6o, 4-(디-2-하이드로에틸)아미노-6-(메틸티오)피라졸로[3,4-d]피리미딘]: the activity at 20 µM was determined as 106 ± 10%.

In the case of `CCCCNc1nc(SC)nc2c1cnn2-c1ccccc1` [화합물 15t, 1-페닐-4-n-뷰틸아미노-6-(메틸티오)피라졸로[3,4-d]피리미딘], the activity at 20 µM worked out at 48 ± 8%.

Turning to `CSc1nc(NC(C)c2ccc(C)cc2)c2cnn(Cc3ccccc3)c2n1` (stereo not drawn) [화합물 16za, 1-벤질-6-(메틸티오)-N-(1-p-톨릴에틸)-1H-피라졸로[3,4-d]피리미딘-4-아민], the activity at 20 µM came to 40 ± 1.3%.

For the compound `CSc1nc(NC(C)C2CCCCC2)c2cn[nH]c2n1` (stereo not drawn) [6j, 4-(1-사이클로헥실에틸)아미노-6-(메틸티오)피라졸로[3,4-d]피리미딘], the activity at 20 µM was found to be 66 ± 10%.

Turning to `COc1nc(SC)nc2c1cnn2-c1ccccc1` [화합물 15s, 1-페닐-4-메톡시-6-(메틸티오)피라졸로[3,4-d]피리미딘], the activity at 20 µM amounted to 93 ± 2%.

As to `CSc1nc(NCc2ccc(F)cc2)c2cnn(Cc3ccccc3)c2n1` [화합물 16c, 1-벤질-4-(4-플루오로벤질)아미노-6-(메틸티오)피라졸로[3,4-d]피리미딘], the activity at 20 µM came to 32.3 ± 3%.

For the compound `CSc1nc(NCc2ccc(C)cc2)c2cnn(-c3ccccc3)c2n1` [화합물 15p, 1-페닐-4-(4-메틸벤질)아미노-6-(메틸티오)피라졸로[3,4-d]피리미딘], the activity at 20 µM turned out to be 71 ± 5%.

`COc1ccc(CNc2nc(SC)nc3c2cnn3-c2ccccc2)cc1` [화합물 15c, 1-페닐-4-(4-메톡시벤질)아미노-6-(메틸티오)피라졸로[3,4-d]피리미딘]: the activity at 20 µM turned out to be 61 ± 6%.

Staying with this assay, now noted: Mus musculus, BV-2, 24 h, 30 μM, LPS 0.2 ㎍/mL, 24 h co-treatment, nitrite by Griess at 540 nm.
As for `CSc1nc(NCc2ccccc2)c2c(I)n[nH]c2n1` [11a, 3-아이오도-4-벤질아미노-6-(메틸티오)피라졸로[3,4-d]피리미딘], the activity at 30 µM came out at 27 ± 11%.

For `CSc1nc(Cl)c2cn[nH]c2n1` [compound 4, 4-클로로-6-(메틸티오)피라졸로[3,4-d]피리미딘], the activity at 30 µM came out at 19 ± 4.1%.

Source of the values: patent KR20130112248A, “피라졸로피리미딘 유도체 화합물, 이를 포함하는 산화질소 생성 억제용 조성물 및 뇌신경 질환 예방 및 치료용 약학적 조성물” (한국과학기술연구원, priority 2012, dated 2013).
